From patent US5158963A, “1-4-dihydropyridine derivative, process for preparing the same and pharmaceutical composition containing the same” (Kaken Pharmaceutical Co., Ltd., priority 1989, dated 1992)
“Also recorded” adds a separate entry of the source.

How the values were obtained:
[1] = tested on: immobility time of forced swimming test; assay: Activity against immobility time of forced swimming test in mice; format: in vivo, mouse (Slc:ICR male mice); conditions: oral
Protocol: In each group 6 Slc:ICR male mice weighing 25 to 32 g (5 weeks) were bred at the room temperature of 22° to 24° C. under an environment of 60% humidity for 1 week, and then the bred mice were subjected to the following test. The test was carried out by monitering action to voluntarily escape with TV camera when a mouse was put into a cylinder of which inner diameter was 11 cm wherein 17 cm of water being the temperature 25° C. as added. As indication immobility time for 6 minutes was measured. In the test mice were employed which were compulsorily swun for 6 minutes in once per day for continuous 3 day. The investigation for immobility time was carried out by measuring immobility time for 6 minutes 1 hour after oral administration of a test compound. Each of test compound was suspended in a 0.5% solution of methyl cellulose used as a control group. Significant difference is shown with the significance level (* : p<0.05) obtained by comparing data of control group by LSD method.

blood pressure = assay: Activity for blood pressure in rats; format: in vivo, rat (Wister male rats); conditions: oral; for Blood pressure: 100 mg/kg; for activity for decreasing blood pressure (in words): normal rats
Protocol: In each group 4 Wister male rats weighing 200 to 300 g (10 to 15 weeks) were employed. The day before a test, rats were anesthetized with eter, and a polyethylene tube was inserted into aorta abdominalis of a rat. The other end of the polyethylene tube was led out of the rat's body. The led polyethylene tube was connected with a pressure transducer (RM-85, made by Yamamoto Kohden). Blood pressure was measured under a condition of no restriction.

[2] = tested on: decapitation induced hypoxia; assay: Activity against decapitation induced hypoxia in mice; format: in vivo, mouse (Slc:ddy male mice); conditions: oral; for inhibition in vivo at 10 mg/kg / inhibition in vivo at 30 mg/kg / inhibition in vivo at 100 mg/kg: Mus musculus, 1 h, 60 min before decapitation, duration of gasping vs control, read-out: Inhibition rate
Protocol: In each group five Slc:ddy male mice weighing 20 to 22 g (4 weeks) were employed. Sixty minutes after oral administration of a test compound, mice were decapitated with a guillotine. After the decapitation, duration of gasping of head was measured with a timer (CT-916 Type, made by HATTORI SEIKO CO., LTD.) gearing into the guillotine.
Each of test compound was suspended in a 0.5% solution of methyl cellulose and administered. Inhibition rate was calculated by comparing with a 0.5% aqueous solution of methyl cellulose as control. That is, the inhibition rate was calculated by the following formula. [formula]

Acute toxicity in mice = assay: Acute toxicity in mice; design: species or system mouse (Slc:ddy male mice); conditions: in vivo; mouse, oral administration, death rate after 7 days
Protocol: The compound No. 2 of the present invention was orally administered to 5-15 in each group Slc:ddy male mice weighing 24 to 32 g (5 weeks). With death rate after 7 days value of acute toxicity was measured.

[3] = tested on: tonic extensive convulsion (maximal electroshock-induced seizures); assay: Activity against maximal electroshock-induced seizures in mice; format: in vivo, mouse (Slc:ddy male mice); conditions: oral
From the text: In each group six Slc: ddy male mice weighing 26 to 31 g (5 weeks) were employed. Sixty minutes after oral administration of a test compound, corneal electrodes which were wet by physiological saline were contacted with both eyes of a mouse. Then, appearance of tonic extensive convulsion (TE) caused by electrifying under a stimulation condition of 50 mA, 1000 V and 0.2 sec by means of the apparatus of Woodburg & Davenport (made by Kyoto Keisokuki) was judged as indication.
Each of diphenylhydantoin, the compounds Nos. 2, 4, 5, 6, 7, 50, 51 and 52 of the present invention (refer Table 1, hereinafter the same) and nimodipine was suspended in a 0.5% solution of methyl cellulose to subject the test. Flunarizine was suspended in a 5% solution of gum arabic to subject the test.

[4] = tested on: tonic extensive convulsion caused by pentylenetetrazole; assay: Activity against convulsion caused by pentylenetetrazole in mice; format: in vivo, mouse (Slc:ddy male mice); conditions: oral
Protocol: In each group 4-8 Slc:ddy male mice weighing 24 to 32 g (5 weeks) were bred at room temperature of 22° to 24° C. under an environment of 60% humidity for 1 week, and then the bred mice were subjected to the following test. The test was carried out as the following procedure. One hour after the oral administration of a test compound, 40 mg/kg of pentylenetetrazole was administered in a caudal vein. Appearance of tonic extensive convulsion caused by pentylenetetrazole was measured as indication, and anticonvulsive activity was examined. Each of test compound was suspended in a 0.5% solution of methyl cellulose used as a control group.

[5] = in vivo; cited from earlier work

| SMILES | effect on immobility time of forced swimming test (in words) [1] | inhibition in vivo at 10 mg/kg [2] [%] | inhibition in vivo at 30 mg/kg [2] [%] | inhibitory activity against tonic extensive convulsion (share of cases) ([3]; 200 mg/kg) | effect on the immobility time (in words) ([1]; 200 mg/kg) | further results |
| --- | --- | --- | --- | --- | --- | --- |
| C#Cc1cccc(C2C(C(=O)OCC)=C(C)NC(C)=C2C(=O)OCC)c1 [Compound No. 2, 3,5-Diethoxycarbonyl-1,4-dihydro-2,6-dimethyl-4-(3ethynylphenyl)pyridine] | immobility time of forced swimming test reduced | 10.8 | 20.5 | all cases | – | effect on the immobility time (in words) ([1]; 100 mg/kg): showed the effect on the immobility time; Blood pressure (blood pressure; after 15 min.): 100.6 mmHg; Blood pressure (blood pressure; after 30 min.): 98.4 mmHg; Blood pressure (blood pressure; after 60 min.): 94.8 mmHg; Blood pressure (blood pressure; after 120 min.): 92.9 mmHg; activity for decreasing blood pressure (in words) (blood pressure): very weak activity for decreasing blood pressure; effect in decapitation induced hypoxia (in words) [2]: same extent effect as that of flunarizine; also recorded: stronger effect than that of nimodipine and that of nicardipine; LD50 at 168 h (Acute toxicity in mice): 534 mg/kg; inhibitory activity against tonic extensive convulsion (share of cases) ([3]; 100 mg/kg): two thirds; effect on tonic extensive convulsion caused by pentylenetetrazole (in words) [4]: inhibited the tonic extensive convulsion; also recorded: approximately the same extent of the effect of the positive control drug diphenylhydantoin; also recorded: stronger effect than the effect of nimodipine and the effect of nicardipine |
| C#Cc1cccc(C2C(C(=O)OCC)=C(C)NC(C)=C2C(=O)OC(C)C)c1 (stereo not drawn) [Compound No. 4, 5-Ethoxycarbonyl-3-isopropoxycarbonyl-1,4-dihydro-2,6-dimethyl-4-(3-ethynylphenyl)pyridine] | immobility time of forced swimming test reduced | 8.8 | 25.7 | – | showed the effect on the immobility time | effect on the immobility time (in words) ([1]; 50 mg/kg): showed the effect on the immobility time; effect on the immobility time (in words) ([1]; 100 mg/kg): showed the effect on the immobility time; Blood pressure (blood pressure; after 15 min.): 100.1 mmHg; Blood pressure (blood pressure; after 30 min.): 97.2 mmHg; Blood pressure (blood pressure; after 60 min.): 93.4 mmHg; Blood pressure (blood pressure; after 120 min.): 90.5 mmHg; activity for decreasing blood pressure (in words) (blood pressure): very weak activity for decreasing blood pressure; effect in decapitation induced hypoxia (in words) [2]: same extent effect as that of flunarizine; also recorded: stronger effect than that of nimodipine and that of nicardipine; inhibitory activity against tonic extensive convulsion (share of cases) ([3]; 50 mg/kg): two thirds; inhibitory activity against tonic extensive convulsion (share of cases) ([3]; 100 mg/kg): five sixths |
| C#Cc1cccc(C2C(C(=O)OCC)=C(C)NC(C)=C2C(=O)OCCC)c1 (stereo not drawn) [Compound No. 5, 5-Ethoxycarbonyl-3-n-propoxycarbonyl-1,4-dihydro-2,6-dimethyl-4-(3-ethynylphenyl)pyridine] | immobility time of forced swimming test reduced | – | – | two thirds | showed the effect on the immobility time | – |
| C#Cc1cccc(C2C(C(=O)OC(C)C)=C(C)NC(C)=C2C(=O)OC(C)C)c1 [Compound No. 6, 3,5-Diisopropoxycarbonyl-1,4-dihydro-2,6-dimethyl-4-(3-ethynylphenyl)pyridine] | immobility time of forced swimming test reduced | – | – | a third | showed the effect on the immobility time | – |
| C#Cc1cccc(C2C(C(=O)OC)=C(C)NC(C)=C2C(=O)OC(C)C)c1 (stereo not drawn) [Compound No. 7, 5-Isopropoxycarbonyl-3-methoxycarbonyl-1,4-dihydro-2,6-dimethyl-4-(3-ethynylphenyl)pyridine] | immobility time of forced swimming test reduced | – | – | a third | showed the effect on the immobility time | – |
| C#Cc1cccc(C2C(C(=O)OCC)=C(C)NC(C)=C2C(=O)OCC=C)c1 (stereo not drawn) [Compound No. 50, 5-Ethoxycarbonyl-3-allyloxycarbonyl-1,4-dihydro-2,6-dimethyl-4-(3-ethynylphenyl)pyridine] | immobility time of forced swimming test reduced | – | – | all cases | showed the effect on the immobility time | inhibition in vivo at 100 mg/kg [2]: 31.1% |
| C#Cc1cccc(C2C(C(=O)OCC)=C(C)NC(C)=C2C(=O)OCC=CC)c1 (stereo not drawn) [Compound No. 51, 5-Ethoxycarbonyl-3-crotyloxycarbonyl-1,4-dihydro-2,6-dimethyl-4-(3-ethynylphenyl)pyridine] | immobility time of forced swimming test reduced | – | 25.7 | all cases | showed the effect on the immobility time | inhibition in vivo at 100 mg/kg [2]: 28.3% |
| C#Cc1cccc(C2C(C(=O)OC)=C(C)NC(C)=C2C(=O)OCC=C(C)C)c1 (stereo not drawn) [Compound No. 52, 5-Methoxycarbonyl-3-(3-methyl-2-butenyloxycarbonyl)-1,4-dihydro-2,6-dimethyl-4-(3-ethynylphenyl)pyridine] | immobility time of forced swimming test reduced | – | – | two thirds | showed the effect on the immobility time | inhibition in vivo at 100 mg/kg [2]: 26.4% |
| COC(=O)C1=C(C)NC(C)=C(C(=O)OCCN(C)Cc2ccccc2)C1c1cccc([N+](=O)[O-])c1 (stereo not drawn) [Nicardipine, 2-(N-benzyl-N-methylamino)ethyl,methyl 2,6-dimethyl-4-(3-nitrophenyl)-1,4-dihydropyridine-3,5-dicarboxylate hydro chloride, reference compound] | – | 4.2 | 6.8 | – | – | Blood pressure (blood pressure; after 15 min.): 100.0 mmHg; Blood pressure (blood pressure; after 30 min.): 67.2 mmHg; Blood pressure (blood pressure; after 60 min.): 69.2 mmHg; Blood pressure (blood pressure; after 120 min.): 67.2 mmHg; activity for decreasing blood pressure (in words) (blood pressure): strong antihypertensive activity; also recorded: remarkable activity for decreasing blood pressure |
| COC(=O)C1=C(C)NC(C)=C(C(=O)OC)C1c1ccccc1[N+](=O)[O-] [Nifedipine, dimethyl 2,6-dimethyl-4-(2-nitrophenyl)-1,4-dihydropyridine-3,5-dicarboxylate] | – | – | – | – | – | vasodepressor activity and coronary vasodilator activity [5]: strong |
| COCCOC(=O)C1=C(C)NC(C)=C(C(=O)OC(C)C)C1c1cccc([N+](=O)[O-])c1 (stereo not drawn) [Nimodipine, isopropyl, 2-methoxyethyl 2,6-dimethyl-4-(3-nitrophenyl)-1,4-dihydropyridine-3,5-dicarboxylate, reference compound] | ineffective; also recorded: no effect | 2.1 | 9.3 | No inhibitory activity | – | effect on maximal electroshock-induced seizures (in words) [3]: ineffective |
